“Also recorded” adds a separate entry of the source.
Tests used:
Type in all cases: cell-based
[1] = test system: collagen 1A1; assay: Collagen 1A1 gene expression in human dermal fibroblasts; conditions: real time RT-PCR
Text: Human dermal fibroblasts, HDF, prepared from neonatal foreskin and cultured for 4 days until they reached confluence as described in Example 3.

[2] = test system: transglutaminase-1; assay: Induction of differentiation marker transglutaminase-1 in human epidermal keratinocytes (real time RT-PCR); conditions: NHEK, several concentrations
Experimental: (§1) Silica mud precipitate was obtained from a natural source (Blue Lagoon geothermal basin, Svartsengi, Iceland). Sodium metasilicate was obtained from Prof. Dr. G. Lehmann, Biochemistry, Regensburg University. As control a ceramide mix (10 μM) was used to induce the differentiation markers.
(§2) Long term cultured normal human epidermal keratinocytes, NHEK, prepared from neonatal foreskin are cultured in Keratinocyte SFM (Invitrogen™, Heidelberg, Germany) supplemented with bovine pituitary extract (Invitrogen, Heidelberg, Germany) and recombinant epidermal growth factor (Invitrogen, Heidelberg, Germany). Cells are propagated up to passage 2 or 3 at 37° C. and 5% CO2. For induction of differentiation NHEKs are seeded in 6-well plates and grown up to confluence and treated with several concentrations of the silica preparates.
(§3) Total RNA was isolated using RNeasy Total RNA Kits (Qiagen, Hilden, Germany). The RNA concentration was determined via photometric measurement at 260/280 (Biophotometer, Eppendorf AG, Hamburg, Germany). An aliquot of 10 ng RNA was used for cDNA synthesis. […]
(§4) PCR reactions were carried out on an opticon 1 (MJ Research, Waltham, Mass., USA) using SYBR Green® PCR Master Mix (Applied Biosystems, Darmstadt, Germany). Each sample was analyzed in double employing the universal protocol over 36 cycles. […]

[3] = test system: Filaggrin; assay: Induction of differentiation marker filaggrin in human epidermal keratinocytes (real time RT-PCR); conditions: NHEK, several concentrations
Experimental: as §1, §2, §3, §4

[4] = test system: Involucrin; assay: Induction of differentiation marker involucrin in human epidermal keratinocytes (real time RT-PCR); conditions: NHEK, several concentrations
Experimental: as §1, §2, §3, §4

[5] = test system: Loricrin; assay: Induction of differentiation marker loricrin in human epidermal keratinocytes (real time RT-PCR); conditions: NHEK, several concentrations
Experimental: as §1, §2, §3, §4

O=[Si]([O-])[O-].[Na+].[Na+] [sodium metasilicate]
collagen 1A1 gene expression [1]: did not show any increase
expression of transglutaminase-1 [2]: substantial up-regulation; also recorded: induced
expression of filaggrin [3]: substantial up-regulation; also recorded: induced; also recorded: stronger than with silica mud
expression of involucrin [4]: substantial up-regulation; also recorded: induced
expression of loricrin [5]: induced

From patent publication US20090311348A1, “PHARMECEUTICAL AND COSMETIC USE OF SILICA” (priority 2006, published 2009)
